{"source": "patent US20230181719A1", "about": "“NGR CONJUGATES AND USES THEREOF” (OSPEDALE SAN RAFFAELE S.R.L., priority 2020, published 2023)", "key": {"CD13 (aminopeptidase N)": {"biological_target": "T1, CD13 (aminopeptidase N) (Homo sapiens, UniProt P15144)", "T1 construct": "histidine tag", "assay": "CD13 enzyme kinetics inhibition assay (L-alanine p-nitroanilide substrate)", "type": "biochemical", "settings": "in different experimental conditions", "excerpt": "FIG. 10. The peptide SCNGRCGVRY (SEQ ID NO: 3) inhibits CD13 enzymatic activity more efficiently than CNGRCGVRY (SEQ ID NO:4) and acetylated-CNGRCGVRY. A) Steady state kinetic analysis of CD13 in the presence of various amounts of L-alanine p-nitroanilide substrate and SCNGRCGVRY (SEQ ID NO: 3), CNGRCGVRY (SEQ ID NO:4), or acetylated-CNGRCGVRY (ac-CNGRCGVRY) (SEQ ID NO:42). A representative plot of 3-4 independent experiments, showing the initial velocity (V0) versus substrate concentration (mean ± SE of four technical replicates), is shown. The assays were performed with recombinant human histidine-tagged CD13 (200-300 ng/ml) in 60 mM potassium phosphate buffer, pH 7.4, at room temperature. The kinetic of p-nitroanilide formation was monitored spectrophotometrically (A405 nm) for 5-10 min. The inhibitory constant (Ki) reported in each plot is the result of the 3-4 independent experiments (mean ± SE). B) Double reciprocal plots of the experiments reported in panel A.\nTo rule out the possibility that the addition of the serine residue to the N-terminus of NGR-TNF abrogates or reduces its affinity for CD13 inventors performed enzyme kinetics inhibition assays with CD13 (aminopeptidase N) and SCNGRCGVRY (SEQ ID NO: 3), CNGRCGVRY (SEQ ID NO:4) or acetyl-CNGRCGVRY (corresponding to the N-terminal region of human S-NGR-TNF and NGR-TNF)."}, "α5β1": {"biological_target": "α5β1 (Homo sapiens, UniProt P05556+P08648)", "assay": "Competitive binding of acetyl-CisoDGRCG/streptavidin-peroxidase to integrin-coated microtiterplates", "settings": "mean ± SE", "excerpt": "(§1) To assess whether the isoDGR derivative of S-NGR-TNF and NGR-TNF targeting domains can recognize integrins with similar affinities inventors then analysed the binding of SCisoDGRCGVRY (SEQ ID NO: 17), CisoDGRCGVRY and acetyl-CisoDGRCGVRY to αvβ3, αvβ5, αvβ6 αvβ8 and α5β1 integrins using a competitive binding assay previously described (Curnis et al. 2010). […] As expected […] (SEQ ID NO: 3) and […] […] Considering that human NGR-TNF contains acetylated and non-acetylated forms and that both CNGRC (SEQ ID NO:5) and acetyl-CNGRC can undergo deamidation (Curnis et al. 2010), inventors can conclude that the isoDGR derivative of S-NGR-TNF, if formed, behave in a manner similar to those of the isoDGR derivatives of NGR-TNF in terms of integrin recognition."}, "αvβ3": {"biological_target": "αvβ3 (Homo sapiens, UniProt P05106+P06756)", "assay": "Competitive binding of acetyl-CisoDGRCG/streptavidin-peroxidase to integrin-coated microtiterplates", "excerpt": "as §1"}, "αvβ5": {"biological_target": "αvβ5 (Homo sapiens, UniProt P06756+P18084)", "assay": "Competitive binding of acetyl-CisoDGRCG/streptavidin-peroxidase to integrin-coated microtiterplates", "settings": "mean ± SE", "excerpt": "as §1"}, "αvβ6": {"biological_target": "αvβ6 (Homo sapiens, UniProt P06756+P18564)", "assay": "Competitive binding of acetyl-CisoDGRCG/streptavidin-peroxidase to integrin-coated microtiterplates", "settings": "mean ± SE", "excerpt": "as §1"}, "αvβ8": {"biological_target": "αvβ8 (Homo sapiens, UniProt P06756+P26012)", "assay": "Competitive binding of acetyl-CisoDGRCG/streptavidin-peroxidase to integrin-coated microtiterplates", "settings": "mean ± SE", "excerpt": "as §1"}, "[1]": {"assay": "Peptide deamidation stability upon incubation at 37° C., by mass spectrometry", "type": "physicochemical", "settings": "after 32 h at 37° C. in PBS, pH 7.4", "procedure": "FIG. 11. The peptide SCNGRCGVRY (SEQ ID NO: 3) has a lower propensity to deamidate than CNGRCGVRY (SEQ ID NO:4) in a physiological buffer at […], but not in ammonium bicarbonate buffer at pH 8.5. A and B) MS analysis of SCNGRCGVRY (SEQ ID NO: 3) and CNGRCGVRY (SEQ ID NO:4) after incubation at 37° C. for the indicated time in 50 mM sodium phosphate buffer, pH 7.4 (PBS) or 0.1 M ammonium bicarbonate buffer, pH 8.5 (Ambic). The values +0, + 1, -17 reported in the plot correspond to the difference between the observed and the expected molecular mass of peptides expressed in daltons. MS analysis was performed using the LTQ-Orbitrap mass spectrometer (Thermo Scientific).\nTo assess whether the addition of the serine residue to CNGRCG (SEQ ID NO:1) might affect its deamidation propensity inventors synthetized the SCNGRCGVRY (SEQ ID NO: 3) and CNGRCGVRY (SEQ ID NO:4) peptides and studied their stability upon incubation at 37° C. in PBS, pH 7.4, by mass spectrometry.\nA similar experiment was then performed with peptides in 0.1 M ammonium bicarbonate, pH 8.5, a condition known to force Asn deamidation (Curnis et al. 2006). […] Furthermore, the succinimide-derivative of S-NGR-TNF, when formed, is more prone to hydrolysis."}}, "note": "Positions of bridges follow the written chain, without caps; N, C: chain ends. Residues, ends and D or L forms follow the SMILES beside them."}
{"smiles": "CC(C)[C@H](NC(=O)CNC(=O)[C@@H]1CSSC[C@H](NC(=O)[C@@H](N)CO)C(=O)N[C@@H](CC(N)=O)C(=O)NCC(=O)N[C@@H](CCCNC(=N)N)C(=O)N1)C(=O)N[C@@H](CCCNC(=N)N)C(=O)N[C@@H](Cc1ccc(O)cc1)C(=O)O", "note": "[SCNGRCGVRY, SCNGRCGVRY (SEQ ID NO: 3)] (H-SCNGRCGVRY-OH; disulfide 2-6; N-terminus and C-terminus assumed)", "values": [{"measurement": "Ki value for CD13 lower than that of CNGRCGVRY", "setting": "CD13 (aminopeptidase N)", "value": "3-5 fold"}, {"measurement": "Ki", "setting": "α5β1", "value": "> 10", "unit": "µM"}, {"measurement": "Ki", "setting": "αvβ3; mean ± SE", "value": "> 10", "unit": "µM"}, {"measurement": "affinity for integrins", "setting": "αvβ3; αvβ3, αvβ5, αvβ6, αvβ8 and α5β1 (all integrins)", "value": "no or very low affinity"}, {"measurement": "Ki", "setting": "αvβ5", "value": "> 10", "unit": "µM"}, {"measurement": "Ki", "setting": "αvβ6", "value": "> 10", "unit": "µM"}, {"measurement": "Ki", "setting": "αvβ8", "value": "> 10", "unit": "µM"}, {"measurement": "+1 Da deamidation product (DGR/isoDGR)", "setting": "[1]", "value": "observed"}, {"measurement": "-17 Da form still present", "setting": "[1]", "value": "not"}]}
